This note sets out measurements from patent EP2196204A1 (priority 2007, dated 2009).

This test deals with DU-145. In kind it is cell-based, human.

On to `CC(=O)O[C@H]1C(=O)[C@@]2(C)[C@H]([C@H](OC(=O)c3ccccc3)[C@]3(O)C[C@H](OC(=O)[C@H](O)[C@@H](NC(=O)c4ccccc4)c4ccccc4)C(C)=C1C3(C)C)[C@]1(OC(C)=O)CO[C@@H]1C[C@@H]2O` [Taxol], for which the Cell survival rate was determined as 63.88%.
